In ChEMBL document CHEMBL1122054, “Lysosomotropic agents. 4. Carbobenzoxyglycylphenylalanyl, a new protease-sensitive masking group for introduction into cells” (J Med Chem, 1982):

Assays:
Mus musculus [1] = species on record: Mus musculus; test: Evaluated for the percent inhibition uptake of radiolabeled thymidine as a measure of inhibition of cell division against the SV40-transformed 3T3 cells after 4 hr at the concentration of 1x10E4M; type: functional, NIH3T3
Mus musculus [2] = species on record: Mus musculus; test: Evaluated for the percent inhibition uptake of radiolabeled thymidine as a measure of inhibition of cell division against the SV40-transformed 3T3 cells after 4 hr at the concentration of 3x10E4M; type: functional, NIH3T3
Mus musculus [3] = species on record: Mus musculus; test: Evaluated for the percent inhibition uptake of radiolabeled thymidine as a measure of inhibition of cell division against the SV40-transformed 3T3 cells after 4 hr at the concentration of 6; type: functional, NIH3T3
Mus musculus [4] = species on record: Mus musculus; test: Toxicity toward P-815 Mastocytoma cells after 5 hr was determined as percent of [51Cr]- release from labeled cells as a measure of cell death. at a concentration of 0.257 mM. (expt III); type: functional
Mus musculus [5] = species on record: Mus musculus; test: Toxicity was evaluated for the compound at a concentration of 0.257 mM against […] Mastocytoma.; type: functional

SMILES	Inhibition uptake (Mus musculus [1]) [%]	Inhibition uptake (Mus musculus [2]) [%]	Inhibition uptake (Mus musculus [3]) [%]	Cr release (Mus musculus [4]) [%]	Toxicity (Mus musculus [5]) [µg/mL]
CC(C)(C)OC(=O)NCC(=O)N[C@H](Cc1ccccc1)C(=O)N(CCCl)CCCl	-4	33	52	–	–
CCCCCCCCCCCCNC(=O)[C@H](Cc1ccccc1)NC(=O)CN	–	–	–	93	100
NCC(=O)N[C@H](Cc1ccccc1)C(=O)N(CCCl)CCCl	5	16	60	–	–
